Laboratory results from patent publication US11685766B2, “14-3-3 targeting peptides for cancer treatment” (Creighton University, priority 2019, dated 2023).
Peptide text beside a SMILES is read from it.

Target: T1, 14-3-3ε heterodimerization (Homo sapiens, UniProt P62258)
T1 construct: endogenous in cells; host or cells: SCC12B.2
T1 sequence (P62258 1-255): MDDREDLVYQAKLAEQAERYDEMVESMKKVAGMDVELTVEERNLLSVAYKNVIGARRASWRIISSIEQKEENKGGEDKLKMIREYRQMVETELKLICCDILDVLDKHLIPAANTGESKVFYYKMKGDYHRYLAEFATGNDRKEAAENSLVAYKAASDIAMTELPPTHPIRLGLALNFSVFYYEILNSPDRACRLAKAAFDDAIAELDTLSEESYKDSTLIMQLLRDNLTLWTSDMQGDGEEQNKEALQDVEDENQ
Assay: Co-immunoprecipitation / immunoblot of 14-3-3ε heterodimerization
Type: cell-based
Conditions: SCC12B.2 cells, 20 μM, 48 hours, vs vehicle
Experimental: Co-Immunoprecipitation was performed using a Dynabeads Protein G Immunoprecipitation kit (Life Technologies, Carlsbad, Calif., USA). Beads were coupled to antibodies targeting 14-3-3ε (Fisher Scientific, Waltham, Mass., USA) or Akt (Thermo Fisher) at a ratio of 7 μg of antibody for every 1 mg of beads according to the manufacturers protocol. SCC12B.2 cells were treated with vehicle (20 mM Tris buffer, pH 7.5) or fresh ES1P2 targeting peptide daily at the IC50 concentration for 48 hours in Opti-MEM I Reduced Serum Medium (Invitrogen) and collected by trypsinization. […]
Protein was collected by either standard whole-cell lysis using ice-cold radioimmunoprecipitation assay (RIPA) lysis buffer supplemented with protease (Roche Life Scientific) and phosphatase inhibitors (NaF, Na3VO4) or by nuclear/cytosolic extraction using the NE-PER Nuclear and Cytoplasmic Protein Extraction Reagent Kit according to the manufacturer's protocol (Pierce, Rockford, Ill., USA). […] Protein concentration was assessed with the Bradford assay. […] Bands were detected using horseradish peroxidase-conjugated secondary antibodies (IgG mouse or rabbit) (Cell Signaling) and visualized using western lightning plus chemiluminescent reagent (MidSci, Valley Park, Mo., USA) and signal read on a Chemidoc XRS Molecular Imager (Bio-Rad Laboratories, Hercules, Calif., USA).

For `NCCCC[C@H](NC(=O)[C@H](Cc1c[nH]c2ccccc12)NC(=O)[C@H](Cc1ccc(O)cc1)NC(=O)[C@@H](N)Cc1c[nH]c2ccccc12)C(N)=O` [ES1P2, Trp-Tyr-Trp-Lys-NH2] (H-WYWK-NH2), the 14-3-3ε heterodimerization was “reduces 14-3 3ε heterodimerization”.
